Legend:
nonstop-PGK1 transcripts = assay: nonstop-PGK1 mRNA stability (half-life by Northern blot) in yeast; format: cell-based, Saccharomyces cerevisiae; conditions: treatment with translation inhibitor
Source text: In order to determine whether the presence of translational termination influences mRNA stability, we assayed PGK1 tran-scripts in Saccharomyces cerevisiae derived from the following constructs (3): wild-type PGK1 (WT-PGK1), a nonsense form of PGK1 harboring a PTC at codon 22 [PTC(22)-PGK1], and nonstop-PGK1 that was created by removing the bona fide termination codon and all in-frame termination codons in the 3′ UTR (untranslated region) from the WT-PGK1 transcript. Nonstop-PGK1 transcripts were as labile as their nonsense-containing counterparts. At least three trans-acting factors (Upf1p, Upf2p, and Upf3p) are essential for nonsense-mediated mRNA decay (NMD) in S. cerevisiae (4, 5). Remarkably, nonstop transcripts were not stabilized in strains lacking Upf1p, distinguishing the pathway of decay from NMD.
Additional experiments were performed to assess the role of translation in nonstop decay. […] It has been shown that translation into the 3′ UTR of selected transcripts can displace bound trans-factors that are positive determinants of message stability (13, 14). […]
(§1) 27. […] Half-lives were determined by plotting the percent of mRNA remaining versus time on a semi-log plot. All half-lives were determined at 25° C. except for the ccr4Δ (performed at 30° C.) and dcp1-2 [performed after shift to the nonpermissive temp (37° C.) for 1 hour] experiments.

[1] = test system: WT-PGK1 and Ter-poly(A)-PGK1 transcripts; assay: half-lives of WT-PGK1 and Ter-poly(A)-PGK1 transcripts in yeast treated with paromomycin; format: cell-based, Saccharomyces cerevisiae; conditions: 100 μg/ml CHX added during the last hour before half-life determination
Description: FIG. 2 depicts graphs of the half-lives of WT-PGK1 and Ter-poly(A)-PGK1 transcripts in wild-type-(WT) and SK17-deleted (ski7A) yeast strains treated with the indicated dose of paromomycin (mg/ml) (PM) for 20 hours. For cycloheximide (CHX) experiments, yeast were treated identically except 100 μg/ml of CHX was added during the last hour before half-life determination.
Any event that diminishes translational fidelity and promotes readthrough of termination codons could plausibly result in the generation of substrates for nonstop decay. In view of recent attempts to treat genetic disorders resulting from PTCs with long-term and high-dose aminoglycoside regimens, this may achieve medical significance. As a proof-of-concept experiment, we examined the performance of transcripts with one [Ter-poly(A)-PGK1] or multiple (WT-PGK1) in-frame termination codons (including those in the 3′ UTR) in yeast strains after treatment with paromomycin, which induces ribosomal readthrough.
as §1, with “27. All PGK1 minigene constructs were under the control of the GAL1 upstream activation sequence (UAS).” for “27.”

[2] = test system: termination codon (UGA) in renilla luciferase ORF; assay: readthrough assay using a dual luciferase reporter construct; format: cell-based
Source text: FIG. 3 depicts the results of a readthrough assay using a dual luciferase reporter construct.
This example describes a readthrough assay that uses a dual lucifierase reporter construct. The firefly luciferase ORF is wild-type while translation of the renilla luciferase ORF is prevented by the presence of a termination codon (UGA). Cells were either untreated or treated with siRNAs directed against RRP4, an essential component of the exosome.

[3] = test system: cultured chicken hepatocellular carcinoma cells; assay: ratio of truncated to full-length GHR transcripts after translational arrest; format: cell-based; conditions: after treatment with translational inhibitor

Molecule: C[C@@H]1C[C@@H]([C@H](O)CC2CC(=O)NC(=O)C2)C(=O)[C@@H](C)C1 [cycloheximide]
- stability of nonstop-PGK1 transcripts (nonstop-PGK1 transcripts): substantially increased the stability
- effect on paromomycin-induced decrease in stability of Ter-poly(A)-PGK1 and WT-PGK1 transcripts [1]: could be reversed

Molecule: gentamycin
- readthrough, renilla:firefly ratio ([2]; exosome function inhibited by siRNAs directed against RRP4, increasing concentrations): dose-dependent increase in readthrough
- readthrough, renilla:firefly ratio ([2]; intact exosome function (control RNAi), increasing concentrations): do not result in a significant increase in readthrough

Molecule: CC[C@H]1CN2CCc3cc(OC)c(OC)cc3[C@@H]2C[C@@H]1C[C@H]1NCCc2cc(OC)c(OC)cc21 [emetine]
- ratio of truncated-to-full-length GHR transcripts [3]: dramatically increased
